Experimental data: ChEMBL document CHEMBL5365510, “Discovery of Novel, Thienopyridine-Based Tyrosine Kinase Inhibitors Targeting Tumorigenic RON Splice Variants” (ACS Med Chem Lett, 2023)
The source made the active and inactive calls. The rule behind the calls is not given here.

Legend:
KM12C [1] = assay: Antiproliferative activity against human KM12-C cells harbouring wild-type KRAS and RON delta 160 assessed as cell growth inhibition measured after 72 hrs by MTS assay; assay type: functional
SW-620 [2] = assay: Antiproliferative activity against human SW620 cells harbouring KRAS G12 V mutant and RON delta 155 assessed as cell growth inhibition measured after 72 hrs by MTS assay; assay type: functional
KM12C [3] = assay: Antiproliferative activity against human KM12-C cells harbouring wild-type KRAS and RON delta 160 assessed as cell death rate at 5 uM measured after 48 hrs by trypan blue exclusion assay relative to control; assay type: functional
HT-29 [4] = assay: Antiproliferative activity against human HT-29 cells harbouring wild-type KRAS and RON delta 160 assessed as cell death rate at 5 uM measured after 48 hrs by trypan blue exclusion assay relative to control; assay type: functional
NIH3T3 [5] = assay: Inhibition of RON splicing variant 155 (unknown origin) transfected in […] cells assessed as reduction in RON phosphorylation at 100 uM incubated for 2 hrs by Western blotting analysis; assay type: cell-based
NIH3T3 [6] = assay: Inhibition of RON splicing variant 160 (unknown origin) transfected in […] cells assessed as reduction in RON phosphorylation at 100 uM incubated for 2 hrs by Western blotting analysis; assay type: cell-based
NIH3T3 [7] = assay: Inhibition of RON splicing variant 165 (unknown origin) transfected in […] cells assessed as reduction in RON phosphorylation at 100 uM incubated for 2 hrs by Western blotting analysis; assay type: cell-based
LS-411N = assay: Antiproliferative activity against human LS-411N cells harbouring wild-type KRAS and RON delta 155 assessed as cell growth inhibition measured after 72 hrs by MTS assay; assay type: functional
[8] = Antiproliferative activity against human SNU-1047 cells harbouring wild-type KRAS and RON delta 155 assessed as cell growth inhibition measured after 72 hrs by MTS assay; assay type: functional
SW1417 = assay: Antiproliferative activity against human SW1417 cells harbouring wild-type KRAS and RON delta 155 assessed as cell growth inhibition measured after 72 hrs by MTS assay; assay type: functional
PANC-1 = assay: Antiproliferative activity against human PANC-1 cells harbouring KRAS G12D mutant and RON delta 155 assessed as cell growth inhibition measured after 72 hrs by MTS assay; assay type: functional
CAPAN-1 = assay: Antiproliferative activity against human CAPAN-1 cells harbouring KRAS G12V mutant and RON delta 155 assessed as cell growth inhibition measured after 72 hrs by MTS assay; assay type: functional
PANC-03-27 = assay: Antiproliferative activity against human Panc 03.27 cells harbouring KRAS G12V mutant and RON delta 155 assessed as cell growth inhibition measured after 72 hrs by MTS assay; assay type: functional
SW480 = assay: Antiproliferative activity against human SW480 cells harbouring KRAS G12V mutant and RON delta 155 assessed as cell growth inhibition measured after 72 hrs by MTS assay; assay type: functional
[9] = Antiproliferative activity against human SW480E cells harbouring KRAS G12V mutant and RON delta 160 assessed as cell growth inhibition measured after 72 hrs by MTS assay; assay type: functional
HCT-15 = assay: Antiproliferative activity against human HCT-15 cells harbouring KRAS G13D mutant and RON delta 160 assessed as cell growth inhibition measured after 72 hrs by MTS assay; assay type: functional
MIA PaCa-2 = assay: Antiproliferative activity against human MIA PaCa-2 cells harbouring KRAS G12C mutant and RON delta 160 assessed as cell growth inhibition measured after 72 hrs by MTS assay; assay type: functional
ASPC1 = assay: Antiproliferative activity against human ASPC1 cells harbouring KRAS G12D mutant and RON delta 165 assessed as cell growth inhibition measured after 72 hrs by MTS assay; assay type: functional
[10] = Tmax in Sprague-Dawley rat at 5 mg/kg, po measured after 24 hrs by LC/MS/MS analysis; assay type: ADME, organism-based; settings: in vivo
[11] = Cmax in Sprague-Dawley rat at 5 mg/kg, po measured after 24 hrs by LC/MS/MS analysis; assay type: ADME, organism-based; set-up: dose 5 mg/kg, time 24 hrs, route po; settings: in vivo
[12] = AUC(0 to infinity) in Sprague-Dawley rat at 1 mg/kg, iv measured after 24 hrs by LC/MS/MS analysis; assay type: ADME, organism-based; set-up: time 24 hrs, dose 1 mg/kg, route iv; settings: in vivo, 24 h
[13] = AUC(0 to infinity) in Sprague-Dawley rat at 5 mg/kg, po measured after 24 hrs by LC/MS/MS analysis; assay type: ADME, organism-based; set-up: dose 5 mg/kg, time 24 hrs, route po; settings: in vivo, 24 h
[14] = Clearance in Sprague-Dawley rat at 1 mg/kg, iv measured after 24 hrs by LC/MS/MS analysis; assay type: ADME, organism-based; settings: in vivo, iv, 1 mg/kg, 24 h
[15] = Volume of distribution at steady state in Sprague-Dawley rat at 1 mg/kg, iv measured after 24 hrs by LC/MS/MS analysis; assay type: ADME, organism-based; settings: in vivo, read-out: Vdss
[16] = Half life in Sprague-Dawley rat at 1 mg/kg, iv measured after 24 hrs by LC/MS/MS analysis; assay type: ADME, organism-based; settings: in vivo
[17] = Half life in Sprague-Dawley rat at 5 mg/kg, po measured after 24 hrs by LC/MS/MS analysis; assay type: ADME, organism-based; settings: in vivo
[18] = Oral bioavailability in Sprague-Dawley rat at 5 mg/kg measured after 24 hrs by LC/MS/MS analysis; assay type: ADME, organism-based; settings: in vivo, po, 5 mg/kg, 24 h
[19] = Metabolic stability in human liver microsomes assessed as parent compound remaining after 30 mins in presence of NADPH by LC/MS/MS analysis; assay type: ADME, Microsome; settings: read-out: Stability
KM12C [20] = assay: Antitumor activity against human KM12-C cells harbouring RON delta 160 xenografted in BALB/c mouse assessed as tumor growth inhibition at 1 mg/kg, po qd measured after 14 days; assay type: functional; settings: 336 h, time 14 day, read-out: TGI
KM12C [21] = assay: Antitumor activity against human KM12-C cells harbouring RON delta 160 xenografted in BALB/c mouse assessed as tumor growth inhibition at 3 mg/kg, po qd measured after 14 days; assay type: functional; settings: 336 h, time 14 day, read-out: TGI
KM12C [22] = assay: Antitumor activity against human KM12-C cells harbouring RON delta 160 xenografted in BALB/c mouse assessed as tumor growth inhibition at 10 mg/kg, po qd measured after 14 days; assay type: functional; settings: 336 h, time 14 day, read-out: TGI
KM12C [23] = assay: Antitumor activity against human KM12-C cells harbouring RON delta 160 xenografted in BALB/c mouse assessed as tumor growth inhibition at 30 mg/kg, po qd measured after 14 days; assay type: functional; settings: 336 h, time 14 day, read-out: TGI
SW-620 [24] = assay: Antitumor activity against human SW620 cells harbouring RON delta 155 xenografted in BALB/c mouse assessed as tumor growth inhibition at 30 mg/kg, po qd measured after 28 days; assay type: functional; settings: SW-620, 672 h, time 28 day, read-out: TGI
T84 = assay: Antitumor activity against human T84 cells harbouring RON delta 165 xenografted in BALB/c mouse assessed as tumor growth inhibition at 30 mg/kg, po qd measured after 34 days; assay type: functional; settings: T84, 816 h, time 34 day, read-out: TGI
[25] = Antitumor activity against patient derived Colorectal cancer cell harbouring wild-type KRAS and RON delta 160 xenografted in BALB/c mouse assessed as tumor growth inhibition at 10 mg/kg, po qd measured after 28 days; assay type: functional; settings: Homo sapiens, 672 h, time 28 day, read-out: TGI
HT-29 [26] = assay: Antiproliferative activity against human HT-29 cells harbouring wild-type KRAS and RON delta 160 assessed as cell growth inhibition measured after 72 hrs by MTS assay; assay type: functional

| Structure (SMILES) | GI50 (KM12C [1]) [nM] | GI50 (SW-620 [2]) [nM] | GI50 (LS-411N) [nM] | GI50 [8] [nM] | GI50 (SW1417) [nM] | GI50 (PANC-1) [nM] | GI50 (CAPAN-1) [nM] | GI50 (PANC-03-27) [nM] | GI50 (SW480) [nM] | GI50 [9] [nM] | GI50 (HCT-15) [nM] | GI50 (MIA PaCa-2) [nM] | GI50 (ASPC1) [nM] | inhibition in vivo at 30 mg/kg (SW-620 [24]) [%] | inhibition in vivo at 30 mg/kg (T84) [%] | inhibition in vivo at 10 mg/kg [25] [%] | other results |
| --- | --- | --- | --- | --- | --- | --- | --- | --- | --- | --- | --- | --- | --- | --- | --- | --- | --- |
| CCOc1ccn(-c2ccc(F)cc2)c(=O)c1C(=O)Nc1ccc(Oc2ccnc3cc(-c4ccc(CN5CCOCC5)cn4)sc23)c(F)c1 | 7 | 320 | 1010 | 550 | 320 | 2400 | 550 | 7340 | 340 | 450 | 290 | 630 | 460 | 79.8 | 88.3 | 74.9 | Activity (KM12C [3]): 41.9%; Activity (HT-29 [4]): 51.3%; inhibition (NIH3T3 [5]): Active; inhibition (NIH3T3 [6]): Active; inhibition (NIH3T3 [7]): Active; Tmax [10]: 1 h; Cmax [11]: 2020 ng/mL; AUC [12]: 7240 ng·h/mL; AUC [13]: 12600 ng·h/mL; CL [14]: 11.5 mL/min/kg; Vd [15]: 2.25 L/kg; half-life [16]: 3.28 h; half-life [17]: 3.1 h; F [18]: 87.01%; remaining at 0.5 h [19]: 69%; inhibition in vivo at 1 mg/kg (KM12C [20]): 29.4%; inhibition in vivo at 3 mg/kg (KM12C [21]): 35%; inhibition in vivo at 10 mg/kg (KM12C [22]): 73%; inhibition in vivo at 30 mg/kg (KM12C [23]): 85.2% |
| CCOc1ccn(-c2ccc(F)cc2)c(=O)c1C(=O)Nc1ccc(Oc2ccnc(N)c2Cl)c(F)c1 [BMS-777607] | 133 | 860 | > 10000 | > 10000 | > 10000 | > 10000 | 9020 | > 10000 | > 10000 | > 10000 | 5000 | > 10000 | > 10000 | 41.6 | 46.9 | 1.5 | GI50 (HT-29 [26]): > 10000 nM |
